Assays:
[1] = molecular target: recombinant L. donovani CYP51 (Leishmania donovani, UniProt A0A3S7WRS7); assay: Fluorescence-based L. donovani CYP51 inhibition assay; assay type: biochemical
[2] = Microsomal stability, human liver microsomes; assay type: in vitro ADME; conditions: for remaining at 1 h, 3 μM: human, liver microsomes
HepG2 cells = assay: HepG2 toxicity assay; assay type: cell-based; conditions: for IC50: Homo sapiens, HepG2, 72 h, read-out: IC50 against HepG2
[3] = Microsomal stability, mouse liver microsomes; assay type: in vitro ADME; conditions: for remaining at 1 h, 3 μM: mouse, liver microsomes
[4] = test system: intracellular L. donovani; assay: L. donovani-infected macrophage assay; assay type: cell-based, Leishmania donovani; conditions: for IC50: read-out: IC50 against L. donovani; for inhibition at 50 µM: read-out: Inhibition of parasitemia at 50 μM, 50 μM
J774 macrophages = assay: J774 macrophage toxicity assay; assay type: cell-based, mouse; conditions: for IC50: Mus musculus, J774, read-out: IC50 against J774 macrophages
[5] = Leishmania donovani, Macrophage
[6] = Leishmania donovani, Macrophage, intracellular L. donovani, mean ± S.E.M., n=3
[7] = substrate 3 μM, LC-MS detection

| Compound | IC50 [1] | IC50 [4, 5] | IC50 (HepG2 cells) | IC50 (J774 macrophages) | further results |
| --- | --- | --- | --- | --- | --- |
| C[C@@H]1[C@H](O)[C@@H](C)/C=C/C=C/C=C/C=C/C=C/C=C/C=C/[C@H](O[C@@H]2O[C@H](C)[C@@H](O)[C@H](N)[C@@H]2O)C[C@@H]2O[C@](O)(C[C@@H](O)C[C@@H](O)[C@H](O)CC[C@@H](O)C[C@@H](O)CC(=O)O[C@H]1C)C[C@H](O)[C@H]2C(=O)O [Amphotericin B, reference compound] |  | 0.045 ± 0.003 µM |  |  |  |
| N=C(Nc1ccc(OCCCCn2ccnc2)cc1)c1ccccn1 [Compound 9d, N-(4-(4-(1H-imidazol-1-yl)butoxy)phenyl) picolinimidamide] | 6.4 ± 0.1 µM | 18 ± 3 µM | > 20 µM | > 50 µM |  |
| COc1cccc2c1C(=O)c1c(O)c3c(c(O)c1C2=O)C[C@@](O)(C(=O)CO)C[C@@H]3O[C@H]1C[C@H](N)[C@H](O)[C@H](C)O1 [Doxorubicin, reference compound] |  |  | 0.2 ± 0.02 µM |  |  |
| CC[C@@H]([C@H](C)O)n1ncn(-c2ccc(N3CCN(c4ccc(OC[C@@H]5CO[C@@](Cn6cncn6)(c6ccc(F)cc6F)C5)cc4)CC3)cc2)c1=O [Posaconazole, posaconazole, reference compound] | 0.059 ± 0.001 µM |  |  |  | inhibition at 7.5 µM ([4]; Leishmania donovani, Macrophage, read-out: Inhibition of parasitemia at 7.5 μM, 7.5 μM, intracellular L. donovani, mean ± S.E.M., n=3): 47 ± 2% |
| OC(Cn1cncn1)(Cn1cncn1)c1ccc(F)cc1F [Fluconazole, fluconazole, reference compound] | 0.96 ± 0.03 µM |  |  |  | inhibition at 50 µM [4, 6]: 16 ± 3% |
| CC(C)Oc1cc(NC(=N)c2ccccn2)ccc1-c1ccc(-c2ccc(NC(=N)c3ccccn3)cc2OC(C)C)o1 [Compound 1, reference compound] |  |  |  |  | Inhibition of L. donovani CYP51 (in words) ([1]; at concentrations 5–10 times greater than their IC50 against intracellular L. donovani, M.Z. Wang, unpublished observations): weak inhibitors |
| N=C(Nc1ccc(OCCCCn2cncn2)cc1)c1ccccn1 [Compound 9e, N-(4-(4-(1H-1,2,4-triazol-1-yl)butoxy)phenyl) picolinimidamide] | 89 ± 4 µM | > 100 µM | > 100 µM | > 50 µM |  |
| COc1cc([C@@H]2c3cc4c(cc3[C@H](O)[C@H]3COC(=O)[C@H]23)OCO4)cc(OC)c1OC [Podophyllotoxin, reference compound] |  |  |  | 0.025 ± 0.001 µM |  |
| CCN(CC)CCCC(C)Nc1c2ccc(Cl)cc2nc2ccc(OC)cc12 (centres unmarked) [Quinacrine, reference compound] |  |  | 5.5 ± 0.7 µM |  |  |
| CC(=O)N1CCN(c2ccc(OCC3COC(Cn4ccnc4)(c4ccc(Cl)cc4Cl)O3)cc2)CC1 (centres unmarked) [Ketoconazole, ketoconazole, reference compound] | 0.048 ± 0.004 µM |  |  |  | inhibition at 50 µM [4, 6]: 50 ± 7% |
| N=C(NCCCCCCCCn1ccnc1)c1ccccn1 [Compound 28, N-(8-(1H-imidazol-1-yl)octyl)picolinimidamide] |  | > 100 µM | > 100 µM |  |  |

Further lines, with some results ahead:

| IC50 [1] | IC50 [4, 5] | Compound | IC50 (HepG2 cells) | IC50 (J774 macrophages) | further results |
| --- | --- | --- | --- | --- | --- |
| 0.36 ± 0.01 µM | 1.5 ± 0.4 µM | COc1cc(OCCCCCCCCn2ccnc2)ccc1NC(=N)c1ccccn1 [Compound 24a, N-(4-((8-(1H-imidazol-1-yl)octyl)oxy)-2-methoxyphenyl) picolinimidamide] | 16 ± 2 µM | 9.3 ± 0.5 µM | remaining at 1 h, 3 μM [2]: > 80%; remaining at 1 h, 3 μM [3]: > 80% |
| 1.9 ± 0.1 µM |  | N=C(Nc1ccc(OCCCCCCCCn2cncn2)cc1)c1ccccn1 [Compound 9k, N-(4-((8-(1H-1,2,4-triazol-1-yl)octyl)oxy)phenyl) picolinimidamide] | 32 ± 5 µM | 36 ± 1 µM | inhibition at 12.5 µM ([4]; Leishmania donovani, Macrophage, read-out: Inhibition of parasitemia at 12.5 μM, 12.5 μM, intracellular L. donovani, mean ± S.E.M., n=3): ~50%; Decrease in potency against intracellular L. donovani compared with 9h ([4]; compared with 9h): > 10 fold |
| 4.8 ± 0.1 µM | 13 ± 5 µM | N=C(Nc1ccc(OCCCCCn2ccnc2)cc1)c1ccccn1 [Compound 9f, N-(4-((5-(1H-imidazol-1-yl)pentyl)oxy)phenyl) picolinimidamide] | 42 ± 4 µM | > 50 µM |  |
| 0.34 ± 0.01 µM | 1.2 ± 0.1 µM | N=C(Nc1ccc(OCCCCCCCCn2ccnc2)cc1)c1ccccc1 [Compound 9n, N-(4-((8-(1H-imidazol-1-yl)octyl)oxy)phenyl)benzimidamide] | 4.9 ± 1 µM | 0.48 ± 0.02 µM | Increase in HepG2 activity compared to 9h (HepG2 cells; compared to 9h): 2.4 fold; Increase in potency against J774 cells compared to 9h (J774 macrophages; compared to 9h): 22 fold |
| 14 ± 1 µM | 1.7 ± 0.3 µM | N=C(Nc1ccc(OCCCCCCCCn2cccc2)cc1)c1ccccn1 [Compound 9m, N-(4-((8-(1H-pyrrol-1-yl)octyl)oxy)phenyl) picolinimidamide] | 13 ± 2 µM | 11 ± 1 µM | Fold less active as a CYP51 inhibitor than 9h ([1]; compared to 9h): 39 fold |
| 0.57 ± 0.01 µM | 2.2 ± 0.3 µM | COc1cc(NC(=N)c2ccccn2)ccc1OCCCCCCCCn1ccnc1 [Compound 17a, N-(4-((8-(1H-imidazol-1-yl)octyl)oxy)3-methoxyphenyl) picolinimidamide] | 23 ± 2 µM | 16 ± 1 µM | remaining at 1 h, 3 μM [2]: 100%; remaining at 1 h, 3 μM [3]: 100% |
| 21 ± 1 µM | > 50 µM | N=C(Nc1ccc(OCCn2ccnc2)cc1)c1ccccn1 [Compound 9a, N-(4-(2-(1H-imidazol-1-yl)ethoxy)phenyl) picolinimidamide] | > 50 µM | > 50 µM |  |
| 0.53 ± 0.02 µM | 1.9 ± 0.3 µM | CCOc1cc(NC(=N)c2ccccn2)ccc1OCCCCCCCCn1ccnc1 [Compound 17b, N-(4-((8-(1H-imidazol-1-yl)octyl)oxy)3-ethoxyphenyl) picolinimidamide] | 13 µM | 9 ± 1.3 µM |  |
| 0.15 ± 0.01 µM | 2.1 ± 0.2 µM | N=C(Nc1ccc(OCCCCCCCCn2ccnc2)cc1Cl)c1ccccn1 [Compound 9j, N-(4-((8-(1H-imidazol-1-yl)octyl)oxy)-2-chlorophenyl) picolinimidamide] | 8.6 ± 1.2 µM | 8.6 ± 1.2 µM | Fold more potent as inhibitor of L. donovani CYP51 compared to 9h ([1]; compared to 9h): about 2 fold |
| 0.18 ± 0.01 µM | 1.3 ± 0.2 µM | N=C(Nc1ccc(OCCCCCCCCn2ccnc2)c(Cl)c1)c1ccccn1 [Compound 9i, N-(4-((8-(1H-imidazol-1-yl)octyl)oxy)-3-chlorophenyl) picolinimidamide] | 7.7 ± 1.5 µM | 6.8 ± 0.7 µM | Fold more potent as inhibitor of L. donovani CYP51 compared to 9h ([1]; compared to 9h): about 2 fold |
| 0.29 ± 0.01 µM | 0.97 ± 0.07 µM | CC(C)Oc1cc(NC(=N)c2ccccn2)ccc1OCCCCCCCCn1ccnc1 [Compound 17c, N-(4-((8-(1H-imidazol-1-yl)octyl)oxy)3-isopropoxyphenyl) picolinimidamide] | 18 ± 1 µM | 7.8 ± 0.3 µM | remaining at 1 h, 3 μM [2]: > 80%; remaining at 1 h, 3 μM [3]: 100% |
| 0.22 ± 0.01 µM | 1.4 ± 0.2 µM | N=C(Nc1ccc(OCCCCCCCCCCn2ccnc2)cc1)c1ccccn1 [Compound 9l, N-(4-((10-(1H-imidazol-1-yl)decyl)oxy)phenyl) picolinimidamide] | 6.9 ± 1 µM | 4.9 ± 0.9 µM | Human liver microsome t1/2 [2, 7]: 0.95 h; Mouse liver microsome t1/2 [3, 7]: 1.13 h |
| 22 µM | > 25 µM | N=C(Nc1ccc(OCCCn2ccnc2)cc1)c1ccccn1 [Compound 9c, N-(4-(3-(1H-imidazol-1-yl)propoxy)phenyl) picolinimidamide] | > 50 µM | > 50 µM |  |
| 1.3 ± 0.1 µM | 8.8 ± 0.6 µM | N=C(Nc1ccc(OCCCCCCn2ccnc2)cc1)c1ccccn1 [Compound 9g, N-(4-((6-(1H-imidazol-1-yl)hexyl)oxy)phenyl) picolinimidamide] | 20 ± 3 µM | > 40 µM |  |
| 35 ± 2 µM | > 100 µM | N=C(Nc1ccc(OCCn2cncn2)cc1)c1ccccn1 [Compound 9b, N-(4-(2-(1H-1,2,4-triazol-1-yl)ethoxy)phenyl) picolinimidamide] | > 100 µM | > 50 µM |  |
